Read-outs that look alike come from different tables or passages of the source.
Key:
Assay type in all cases: in vivo
Meloidogyne incognita = assay: Nematode control, nodules per plant: Meloidogyne incognita; details: 1 μM foliar application every 5 days, evaluation 35 days after, control 34
How it was run: (§1)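 Foliar application at 1 μM; spraying every 5 days; n = 10 plants/treatment; nodules/plant scored day 35.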

Rhizoctonia solani [1] = assay: Control of Rhizoctonia solani disease in tobacco (Rs-Nt); details: 1 μM spraying every 24 hours for one week, water control 87
Botrytis cinerea [2] = assay: Control of Botrytis cinerea disease in tobacco (Bc-Nt); details: 1 μM spraying every 24 hours for one week, water control 6.7
How it was run: (§2)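 Fifty pre-inoculated plants per treatment received 1 μM compound sprays daily for a week; water-sprayed plants served as controls. Disease scored as plant mortality (Nocardia), share of leaves with symptoms (A. solani) or lesion diameter (B. cinerea).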

Rhizoctonia solani [3] = assay: Control of Rhizoctonia solani disease in tomato (Rs-SI); details: 1 μM spraying every 24 hours for one week, water control 96
Botrytis cinerea [4] = assay: Control of Botrytis cinerea disease in tomato (Bc-SI); details: 1 μM spraying every 24 hours for one week, water control 7.4
How it was run: as §2

Botrytis cinerea [5] = assay: Control of Botrytis cinerea disease in Arabidopsis (Bc-At); details: 1 μM spraying every 24 hours for one week, water control 8.7
How it was run: as §2

Phytophthora parasitica = assay: Control of Phytophthora parasitica disease in tobacco (Pp-Nt); details: 1 μM spraying every 24 hours for one week, water control 91
Radopholus similis = assay: Nematode control, nodules per plant: Radopholus similis; details: 1 μM foliar application every 5 days, evaluation 35 days after, control 45
How it was run: as §1

Nocardia sp = assay: Control of Nocardia sp disease in tobacco (N-Nt); details: 1 μM spraying every 24 hours for one week, water control 58
How it was run: as §2

Pratylenchus coffeae = assay: Nematode control, nodules per plant: Pratylenchus coffeae; details: 1 μM foliar application every 5 days, evaluation 35 days after, control 42
How it was run: as §1

[6] = test system: Candidatus 'Liberibacter asiaticus'; details: 1 μM spray, during 6 months, diseased citrus plants
[7] = test system: Candidatus 'Liberibacter asiaticus'; details: spraying every 15 days, 12 months after treatment, Citrus sinensis with HLB
Alternaria solani = assay: Control of Alternaria solani disease in tomato (As-SI); details: 1 μM spraying every 24 hours for one week, water control 68
How it was run: as §2

Row | SMILES | Mi: number of nodules per plant (Meloidogyne incognita) | Rs-Nt: percentage of mortality (Rhizoctonia solani [1]) [%] | Bc-Nt: mean of the diameter of the lesion (Botrytis cinerea [2]) [mm] | Rs-SI: percentage of mortality (Rhizoctonia solani [3]) [%] | Bc-SI: mean of the diameter of the lesion (Botrytis cinerea [4]) [mm] | Bc-At: mean of the diameter of the lesion (Botrytis cinerea [5]) [mm] | Pp-Nt: percentage of mortality (Phytophthora parasitica) [%] | Rs: number of nodules per plant (Radopholus similis) | N-Nt: percentage of mortality (Nocardia sp) [%] | Pc: number of nodules per plant (Pratylenchus coffeae) | Levels of the bacterium, application once a month compared to twice a month [6] | Bacterial reduction ([6]; once and twice a month) | Titers of the bacterium ([7]; 0.001 μM) [copies per reaction] | Titers of the bacterium ([7]; 0.01 μM) [copies per reaction] | Titers of the bacterium ([7]; 1 μM) [copies per reaction] | Titers of the bacterium ([7]; 5 μM) [copies per reaction] | Titers of the bacterium ([7]; 10 μM) [copies per reaction] | As-SI: percentage of leaves with the disease symptoms (Alternaria solani) [%]
1 | O=C(CCc1cc2cc3c(-c4ccccc4)coc3cc2oc1=O)NCC(O)CO (centres unmarked) [IB, N-(2,3-dihydroxypropyl)-3-{2-oxo-6-phenyl-2H-furo[3,2-g]chromen-3-yl}propanamide] | 3 | 3 | 2.0 | 2 | 1.6 | 1.1 | 2 | 24 | 1 | 13 | reduced significantly | bacterial reduction was observed in both tested variants | 598 | 15 | 0 | 98 | 9751 | 2
2 | CN1c2cc(C(=O)NC3CCCCC3)ccc2OCC1CC(=O)NC(CO)CO (centres unmarked) [VF, N-cyclohexyl-3-{[(1,3-dihydroxypropan-2-yl)carbamoyl]methyl}-4-methyl-3,4-dihydro-2H-1,4-benzoxazine-6-carboxamide] | 2 | 2 | 1.5 | 3 | 2.5 | 1.5 | 1 | 1 | 1 | 1 |  |  | 985 | 1 | 0 | 98 | 2365 | 1
3 | O=C(CC1COc2ccc(C(=O)NC3CCCC3)cc2N1)NC(CO)CO (centres unmarked) [VG, N-cyclopentyl-3-{[(1,3-dihydroxypropan-2-yl)carbamoyl]methyl}-3,4-dihydro-2H-1,4-benzoxazine-6-carboxamide] | 2 | 2 | 1.5 | 3 | 0.8 | 2.4 | 1 | 1 | 1 | 1 |  |  | 657 | 8 | 0 | 67 | 3654 | 1
4 | CN1c2cc(C(=O)NC3CCCC3)ccc2OCC1CC(=O)NC(CO)CO (centres unmarked) [VH, N-cyclopentyl-3-{[(1,3-dihydroxypropan-2-yl)carbamoyl]methyl}-4-methyl-3,4-dihydro-2H-1,4-benzoxazine-6-carboxamide] | 3 | 3 | 0.9 | 2 | 1.2 | 0.7 | 2 | 2 | 1 | 1 |  |  | 658 | 4 | 0 | 68 | 6541 | 2
5 | CN1c2cc(C(N)=O)ccc2OCC1CC(=O)NC(CO)CO (centres unmarked) [VJ, 3-{[(1,3-dihydroxypropan-2-yl)carbamoyl]methyl}-4-methyl-3,4-dihydro-2H-1,4-benzoxazine-6-carboxamide] | 0 | 0 | 0.3 | 2 | 0.8 | 1.2 | 0 | 0 | 1 | 14 |  |  | 456 | 0 | 0 | 56 | 1351 | 8
6 | O=C(CC1COc2ccc(C(=O)Nn3cccc3)cc2N1)NC(CO)CO (centres unmarked) [VK, 3-{[(1,3-dihydroxypropan-2-yl)carbamoyl]methyl}-N-(1H-pyrrol-1-yl)-3,4-dihydro-2H-1,4-benzoxazine-6-carboxamide] | 0 | 0 | 2.0 | 0 | 1.6 | 1.1 | 0 | 0 | 0 | 0 |  |  | 435 | 0 | 0 | 45 | 2547 | 7

Reference: patent US11013235B2 (priority 2015, dated 2021)
